Experimental data from patent US20150285812A1, “Fluorescence-Labelled Fatty Acids and Uses Thereof” (SANOFI, priority 2012, published 2015).
“Also recorded” adds a separate entry of the source.

Experiments:
[1] = log D7.4 determination by RP-HPLC, similar to the water/octanol partition coefficient method; type: physicochemical; settings: pH 7.4, RP-HPLC C18, range −1 to +6
Description: log D7.4 values were determined by a method similar to the partition coefficient method in a water/octanol mixture and were carried out on an RP-HPLC from Waters Alliance (2795) having a C18 column (2×20 mm) with a gradient of morpholinesulfonic acid buffer (pH 7.4) and acetonitrile. The range was between −1 ([…]) to +6 (lipophilic).

amino acid Trp214 of HSA = molecular target: T1, amino acid Trp214 of HSA (Homo sapiens, UniProt P02768); assay: FRET interactions of NBD C12 (17) with Trp214 of HSA; type: binding; settings: for tryptophan emission intensity of HSA after addition of the dye: emission 330 nm, without dye 170/171 FI
T1 construct: purchased Sigma Aldrich A1887
Description: For determining FRET (Förster resonance energy transfer) interactions of NBD C12 (17) with amino acid Trp214 of HSA, concentrations of a dye-HSA mixture according to Table 8 were applied in an amount of 250 μl for each case.
100 μl of mixture 7 were pipetted into a 96 well microplate and a wavelength scan for the absorption in the range from 250 nm to 700 nm was carried out. In each case 15 μl of the residual solutions 1 to 6 were pipetted four times into a black 384 well microplate and emission spectra of the solution in the range from 270 nm to 700 nm were recorded at 290 nm excitation wavelength of the Trp.
For dye NBD C12 (17) the FRET effect between the tryptophan of the HSA and the dye itself was investigated more precisely. The emission spectrum of the amino acid tryptophan overlapped with the absorption spectrum of the NBD dye, because the energy of the donor to be transferred must lie in the region of the possible energy absorption of the acceptor. This is the case when the two spectra overlap. For measurement, both solutions were employed in identical concentrations (25 μM) and the units of the fluorescence intensities (FIrel) and the absorption strength (ODrel) were standardized. An excitation wavelength of 290 nm was utilized for the emission spectrum of tryptophan.
In the next step, different concentrations of NBD C12 (17) were added to the HSA solution until a ratio of NBD to HSA of 1:1 was reached, and the emission spectra were measured.
The efficiency of the energy transfer occurring was calculated using the equation 3.4.
The distance R0, at which a 50% energy exchange takes place, was calculated according to the following equation. Furthermore, by transformation of said equation the real distance r of donor and acceptor was determined.
The fluorescence quantum yield for tryptophan is 0.15.

HSA [2] = molecular target: T2, HSA (Homo sapiens, UniProt P02768); assay: Competition of NBD C12 (17) on HSA with ibuprofen and warfarin; type: binding; settings: from competition with warfarin and ibuprofen
T2 construct: purchased Sigma Aldrich A1887
Description: In analogy to the experiments measuring the fluorescence of the fluorescence-labelled derivatives without HSA above, the solutions were pipetted from the 96 well microplate into a 384 well microplate. […] The fluorescence measurement without a wavelength scan was carried out in analogy to the above-referenced experiment.

HSA [3] = molecular target: T2, HSA; assay: Fluorescence of NBD and dansyl dyes with increasing HSA (FRET effect, emission maxima); type: binding
Description: Absorption and fluorescence of fluorescence-labelled derivatives and HSA were carried out in a Varioskan™ microplate reader (Thermo Electron Corporation). 96 well (Costar, half area, flat bottom) microplates were used for absorption measurements and 384 well (Greiner Bio One, small volume, black) microplates from Greiner Bio One were used for fluorescence measurements. All measurements were carried out at pH 7.4 and room temperature.
5.00 ml of a 400 μM solution were prepared from the HSA stock solution. From this solution a geometric dilution series with 7 dilution steps, a dilution factor of 0.5 and a final volume of each concentration of 2.5 ml were prepared.
Defined concentrations of the fluorescence-labelled compounds were selected from the preceding experiment without HSA above and double-concentrated solutions thereof were prepared to take into account the later 1:1 dilution. For each fluorescence-labelled compound (12-17; 19-25) 1.00 ml of these double-concentrations was prepared. 50 μl of the dye solutions were introduced into a 96 well microplate and 50 μl each of the HSA dilution series were added. By mixing the solutions the concentrations of dye derivatives and the HSA solution were halved. The measurements of the absorption and fluorescence were carried out in analogy to the above experimental procedure without HSA.
In analogy to the absorption measurement the effect of HSA on the fluorescence of the dyes (12-17; 19-25) was determined. The same concentrations of NBD and dansyl dyes and the same concentration range for HSA as already described above were used.

HSA [4] = molecular target: T2, HSA; assay: Displacement of NBD derivatives on HSA by natural fatty acids C6 to C16 (fluorescence); type: binding; settings: ranking among NBD C8, C10 and C12 from the competition experiments
Description: Dilution series for competition experiments with the fatty acids C6 to C16 were diluted with phosphate-buffered saline solution (DPBS buffer). Geometric dilution series of each fatty acid were prepared in 384 well microplates with a starting concentration of 2500 μM and a dilution factor of 0.33 and also 9 dilution steps. The final volume of each concentration was 80 μl. The plated-out fatty acids were stored in the deep freeze (−25° C.) until use.
For displacement experiments 2.50 ml of a 25 μM HSA solution were used per dye derivative. Due to the subsequent dilution steps the HSA concentration was doubled twice such that 2.50 ml of […] solution were prepared.
The dye concentrations were also doubled twice by the following dilution steps. 2.50 ml of each dye solution were needed. 2.10 ml of the respective dye solution were then mixed with 2.10 ml of the 100 μM HSA solution. The respective concentrations of the solutions halve here once. 50 μl of the mixture per well were introduced into a 96 well microplate.
The fatty acid microplates were brought to room temperature and 50 μl each of the dilution series were pipetted into the HSA-dye mixture. The concentrations of all solution constituents were thereby halved once again. In analogy to the experiments measuring the fluorescence of the fluorescence-labelled derivatives without HSA above, the solutions were pipetted from the 96 well microplate into a 384 well microplate. Absorption was not measured. The fluorescence measurement without a wavelength scan was carried out in analogy to the above-referenced experiment.
A concentration of 25 μM and a binding ratio of the NBD derivatives to HSA of 1:1 were employed for the displacement studies. For each dye derivative an NBD-HSA mixture with a concentration of 25 μM was prepared.

[5] = HSA 25 μM, NBD to HSA up to 1:1, excitation 290 nm

T2 sequence (P02768 25-609): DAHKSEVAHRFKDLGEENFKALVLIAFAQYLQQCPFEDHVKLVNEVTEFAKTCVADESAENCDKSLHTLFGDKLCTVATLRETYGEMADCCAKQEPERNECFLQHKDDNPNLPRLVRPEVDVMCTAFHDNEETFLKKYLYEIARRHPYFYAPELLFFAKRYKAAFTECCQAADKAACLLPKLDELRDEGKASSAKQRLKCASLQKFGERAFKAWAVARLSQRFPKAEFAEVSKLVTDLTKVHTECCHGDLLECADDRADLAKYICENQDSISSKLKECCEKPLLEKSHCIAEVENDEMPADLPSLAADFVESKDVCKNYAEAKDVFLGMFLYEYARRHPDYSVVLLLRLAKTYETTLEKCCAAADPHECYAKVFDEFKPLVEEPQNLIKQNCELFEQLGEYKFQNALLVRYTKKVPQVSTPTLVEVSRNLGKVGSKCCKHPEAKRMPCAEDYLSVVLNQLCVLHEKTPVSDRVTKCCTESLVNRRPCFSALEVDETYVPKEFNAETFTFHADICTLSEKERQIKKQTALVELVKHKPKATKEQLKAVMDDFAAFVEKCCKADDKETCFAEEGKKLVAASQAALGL
T1 sequence (P02768 25-609): as above

Compound: O=C(O)CCCCCCCCCCCNc1ccc([N+](=O)[O-])c2nonc12 [NBD C12 (17), 12-(7-Nitrobenzo[1,2,5]oxadiazol-4-ylamino)dodecanoic acid]
- chromatographic logD [1]: 2.84
- log D7.4 [1]: 2.84
- fluorescence of the dye on excitation of tryptophan (amino acid Trp214 of HSA; [5]): 15 FI
- tryptophan emission intensity of HSA after addition of the dye (amino acid Trp214 of HSA; [5]): 82 FI
- tryptophan emission intensity of HSA after addition of the dye (amino acid Trp214 of HSA; HSA 25 μM, NBD to HSA up to 1:1, excitation 290 nm, listed as NBD dye C12 (17)): 80 FI
- efficiency of the energy transfer (amino acid Trp214 of HSA; calculated from I 82 FI and I0 171 FI): approximately 52%
- binding site on HSA (HSA [2]): neither bound the Sudlow's site I nor the Sudlow's site II
- Δλ, shift of emission maximum λem without HSA vs with HSA (HSA [3]; NBD compound 25 μM, λex = 480 nm): 16 nm
- change in fluorescence intensity with increasing HSA concentration (HSA [3]; NBD derivatives 25 μM, HSA 1.56 to 200 μM, 480-550 nm, pH 7.4): increase in fluorescence intensity
- relative binding affinity of the NBD dye for HSA (HSA [4]): greatest binding affinity; also recorded: bounds best
